How the values were obtained:
[1] = tested on: oat, wild; assay: Test C preemergence; assay type: in vivo, Avena fatua; conditions: for Oat, Wild plant response rating: preemergence, 0 to 100 scale (0 no effect, 100 complete control)
Summary of the method: (§1)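 Greenhouse herbicide screen, 10-day duration. Test chemicals in solvent/surfactant blend were sprayed onto soil at sowing (pre) or onto 2–10 cm seedlings at one to two leaves (post); injury scored visually against controls, 0 no effect to 100 complete control.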

[2] = tested on: corn; assay: Test C preemergence; assay type: in vivo, Zea mays; conditions: for Corn plant response rating: preemergence, 0 to 100 scale (0 no effect, 100 complete control)
Summary of the method: as §1

[3] = tested on: barnyardgrass; assay: Test C postemergence; assay type: in vivo, Echinochloa crusgalli; conditions: 10 days
Summary of the method: as §1

[4] = tested on: horseweed; assay: Test C postemergence; assay type: in vivo, Erigeron canadensis; conditions: 10 days
Summary of the method: as §1

[5] = tested on: wheat; assay: Test C postemergence; assay type: in vivo, Triticum aestivum; conditions: 10 days
Summary of the method: as §1

[6] = tested on: corn; assay: Test C postemergence; assay type: in vivo, Zea mays; conditions: 10 days
Summary of the method: as §1

[7] = tested on: ducksalad; assay: Test D flooded paddy test; assay type: in vivo, Heteranthera limosa; conditions: 250 g ai/ha, applied to paddy water, visual rating after 13 to 14 days, scale 0 to 100 (0 no effect, 100 complete control)
Summary of the method: (§2)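 Rating scale 0–100 (0 no effect, 100 complete control), visual, versus controls. Readout at 13–14 days after in-water application to 2-leaf plants in pots flooded 3 cm deep.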

[8] = tested on: ryegrass, Italian; assay: Test C preemergence; assay type: in vivo, Lolium multiflorum; conditions: for Ryegrass, Italian plant response rating: preemergence, 0 to 100 scale (0 no effect, 100 complete control)
Summary of the method: as §1

[9] = tested on: pigweed, palmer; assay: Test C preemergence; assay type: in vivo, Amaranthus palmeri; conditions: for Pigweed, Palmer plant response rating: preemergence, 0 to 100 scale (0 no effect, 100 complete control)
Summary of the method: as §1

[10] = tested on: green foxtail; assay: Test C preemergence; assay type: in vivo, Setaria viridis; conditions: for Foxtail, Green plant response rating: preemergence, 0 to 100 scale (0 no effect, 100 complete control)
Summary of the method: as §1

[11] = tested on: ragweed; assay: Test C preemergence; assay type: in vivo, Ambrosia artemisiifolia; conditions: for Ragweed plant response rating: preemergence, 0 to 100 scale (0 no effect, 100 complete control)
Summary of the method: as §1

[12] = tested on: green foxtail; assay: Test C postemergence; assay type: in vivo, Setaria viridis; conditions: 10 days
Summary of the method: as §1

[13] = tested on: pigweed, palmer; assay: Test C postemergence; assay type: in vivo, Amaranthus palmeri; conditions: 10 days
Summary of the method: as §1

[14] = tested on: soybean; assay: Test C preemergence; assay type: in vivo, Glycine max; conditions: for Soybean plant response rating: preemergence, 0 to 100 scale (0 no effect, 100 complete control)
Summary of the method: as §1

[15] = tested on: ryegrass, Italian; assay: Test C postemergence; assay type: in vivo, Lolium multiflorum; conditions: 10 days
Summary of the method: as §1

[16] = tested on: galium; assay: Test C postemergence; assay type: in vivo, Galium aparine; conditions: 10 days
Summary of the method: as §1

[17] = tested on: rice; assay: Test D flooded paddy test; assay type: in vivo, Oryza sativa; conditions: 250 g ai/ha, applied to paddy water, visual rating after 13 to 14 days, scale 0 to 100 (0 no effect, 100 complete control)
Summary of the method: as §2

[18] = tested on: soybean; assay: Test C postemergence; assay type: in vivo, Glycine max; conditions: 10 days
Summary of the method: as §1

[19] = tested on: oat, wild; assay: Test C postemergence; assay type: in vivo, Avena fatua; conditions: 10 days
Summary of the method: as §1

[20] = tested on: blackgrass; assay: Test C postemergence; assay type: in vivo, Alopecurus myosuroides; conditions: 10 days
Summary of the method: as §1

[21] = tested on: kochia; assay: Test C preemergence; assay type: in vivo, Bassia scoparia; conditions: for Kochia plant response rating: preemergence, 0 to 100 scale (0 no effect, 100 complete control)
Summary of the method: as §1

[22] = tested on: barnyardgrass; assay: Test D flooded paddy test; assay type: in vivo, Echinochloa crus-galli; conditions: 250 g ai/ha, applied to paddy water, visual rating after 13 to 14 days, scale 0 to 100 (0 no effect, 100 complete control)
Summary of the method: as §2

[23] = tested on: kochia; assay: Test C postemergence; assay type: in vivo, Bassia scoparia; conditions: 10 days
Summary of the method: as §1

[24] = tested on: wheat; assay: Test C preemergence; assay type: in vivo, Triticum aestivum; conditions: for Wheat plant response rating: preemergence, 0 to 100 scale (0 no effect, 100 complete control)
Summary of the method: as §1

[25] = tested on: blackgrass; assay: Test C preemergence; assay type: in vivo, Alopecurus myosuroides; conditions: for Blackgrass plant response rating: preemergence; for Plant response rating, Blackgrass: Preemergence
Summary of the method: as §1

[26] = tested on: barnyardgrass; assay: Test C preemergence; assay type: in vivo, Echinochloa crusgalli; conditions: for Barnyardgrass plant response rating: preemergence; for Plant response rating, Barnyardgrass: Preemergence
Summary of the method: as §1

[27] = tested on: sedge, umbrella; assay: Test D flooded paddy test; assay type: in vivo, Cyperus difformis; conditions: 250 g ai/ha, applied to paddy water, visual rating after 13 to 14 days, scale 0 to 100 (0 no effect, 100 complete control)
Summary of the method: as §2

[28] = tested on: ragweed; assay: Test C postemergence; assay type: in vivo, Ambrosia artemisiifolia; conditions: 10 days
Summary of the method: as §1

[29] = Preemergence, 125 g ai/ha, 0 to 100 scale, 0 no effect, 100 complete control
[30] = 500 g ai/ha, postemergence, 0 to 100 scale (0 no effect, 100 complete control)
[31] = Postemergence, 125 g ai/ha, 0 to 100 scale (0 no effect, 100 complete control)
[32] = 500 g ai/ha, 0 to 100 scale (0 no effect, 100 complete control)
[33] = 125 g ai/ha, 0 to 100 scale, 0 no effect, 100 complete control
[34] = 125 g ai/ha, postemergence, 0 to 100 scale, 0 no effect, 100 complete control
[35] = Postemergence, 500 g ai/ha, visual 0 to 100 scale (0 no effect, 100 complete control)
[36] = 500 g ai/ha, visual rating after 10 days, 0 to 100 scale (0 no effect, 100 complete control)
[37] = Test C, 125 g ai/ha, 0 to 100 scale (0 no effect, 100 complete control)

`CC(C)c1ncn(-c2ccc([S+](C)[O-])c(C(=O)N3C[C@H](C)Oc4c(Cl)cccc43)c2)n1` (stereo partly shown) [Compound 394] was tested, and the “Oat, Wild plant response rating” value ([1]; 500 g ai/ha) was 90, the “Plant response rating, Oat, Wild” value [1, 29] was 30 and the “Corn plant response rating” value ([2]; 500 g ai/ha) was 30. For the same molecule, the “Plant response rating, Corn” value [2, 29] was 20, the “Plant response rating, Barnyardgrass” value [3, 30] was 70 and the “Plant response rating, Barnyardgrass” value [3, 31] was 50. For the same molecule, the “Plant response rating, Horseweed” value [4, 30] was 20, the “Plant response rating, Horseweed” value [4, 31] was 0 and the “Plant response rating, Wheat” value [5, 30] was 50. For the same molecule, the “Plant response rating, Wheat” value [5, 31] was 30, the “Plant response rating, Corn” value [6, 30] was 50 and the “Plant response rating, Corn” value [6, 31] was 20. For the same molecule, the “Plant response rating, Ducksalad (Flood)” value [7] was 10, the “Ryegrass, Italian plant response rating” value ([8]; 500 g ai/ha) was 90 and the “Plant response rating, Ryegrass, Italian” value [8, 29] was 60. The “Pigweed, Palmer plant response rating” value ([9]; 500 g ai/ha) was 100, the “Plant response rating, Pigweed, Palmer” value [9, 29] was 100 and the “Foxtail, Green plant response rating” value ([10]; 500 g ai/ha) was 100. For the same molecule, the “Plant response rating, Foxtail, Green” value [10, 29] was 100, the “Ragweed plant response rating” value ([11]; 500 g ai/ha) was 50 and the “Plant response rating, Ragweed” value [11, 29] was 0. The “Plant response rating, Foxtail, Green” value [12, 30] was 90, the “Plant response rating, Foxtail, Green” value [12, 31] was 30 and the “Plant response rating, Pigweed, Palmer” value [13, 30] was 80. The “Plant response rating, Pigweed, Palmer” value [13, 31] was 80, the “Soybean plant response rating” value ([14]; 500 g ai/ha) was 100 and the “Plant response rating, Soybean” value [14, 29] was 20. The “Plant response rating, Ryegrass, Italian” value [15, 30] was 90, the “Plant response rating, Ryegrass, Italian” value [15, 31] was 50 and the “Plant response rating, Galium” value [16, 30] was 100. For the same molecule, the “Plant response rating, Galium” value [16, 31] was 100, the “Plant response rating, Rice (Flood)” value [17] was 0 and the “Plant response rating, Soybean” value [18, 30] was 100. The “Plant response rating, Soybean” value [18, 31] was 100, the “Plant response rating, Oat, Wild” value [19, 30] was 70 and the “Plant response rating, Oat, Wild” value [19, 31] was 50. The “Plant response rating, Blackgrass” value [20, 30] was 70, the “Plant response rating, Blackgrass” value [20, 31] was 50 and the “Kochia plant response rating” value ([21]; 500 g ai/ha) was 100. The “Plant response rating, Kochia” value [21, 29] was 90, the “Plant response rating, Barnyardgrass (Flood)” value [22] was 15 and the “Plant response rating, Kochia” value [23, 30] was 90. The “Plant response rating, Kochia” value [23, 31] was 90, the “Wheat plant response rating” value ([24]; 500 g ai/ha) was 80 and the “Plant response rating, Wheat” value [24, 29] was 20. For the same molecule, the “Blackgrass plant response rating” value [25, 32] was 90, the “Plant response rating, Blackgrass” value [25, 33] was 30 and the “Barnyardgrass plant response rating” value [26, 32] was 100. The “Plant response rating, Barnyardgrass” value [26, 33] was 70, the “Plant response rating, Sedge, Umbrella (Flood)” value [27] was 0 and the “Plant response rating, Ragweed” value [28, 30] was 70. The “Plant response rating, Ragweed” value [28, 31] was 70.

For `COc1ccc(-n2cnc(C(C)(C)O)n2)cc1C(=O)N1C[C@H](C)Oc2c(C)cccc21` [Compound 280], the “Oat, Wild plant response rating” value ([1]; 500 g ai/ha) was 90, the “Oat, Wild plant response rating” value ([1]; Test C, 125 g ai/ha) was 60 and the “Corn plant response rating” value ([2]; 500 g ai/ha) was 60. For the same molecule, the “Corn plant response rating” value ([2]; Test C, 125 g ai/ha) was 30, the “Plant response rating, Barnyardgrass” value [3, 34] was 50 and the “Plant response rating, Barnyardgrass” value [3, 35] was 90. The “Plant response rating, Horseweed” value [4, 34] was 30, the “Plant response rating, Horseweed” value [4, 35] was 60 and the “Plant response rating, Wheat” value [5, 34] was 80. The “Plant response rating, Corn” value [6, 34] was 90, the “Plant response rating, Corn” value [6, 35] was 90 and the “Plant response rating, Ducksalad (Flood)” value [7] was 70. For the same molecule, the “Ryegrass, Italian plant response rating” value ([8]; 500 g ai/ha) was 90, the “Ryegrass, Italian plant response rating” value ([8]; Test C, 125 g ai/ha) was 90 and the “Pigweed, Palmer plant response rating” value ([9]; 500 g ai/ha) was 100. The “Pigweed, Palmer plant response rating” value ([9]; Test C, 125 g ai/ha) was 100, the “Foxtail, Green plant response rating” value ([10]; 500 g ai/ha) was 100 and the “Foxtail, Green plant response rating” value ([10]; Test C, 125 g ai/ha) was 100. For the same molecule, the “Ragweed plant response rating” value ([11]; 500 g ai/ha) was 100, the “Ragweed plant response rating” value ([11]; Test C, 125 g ai/ha) was 90 and the “Plant response rating, Foxtail, Green” value [12, 34] was 60. The “Plant response rating, Foxtail, Green” value [12, 35] was 90, the “Plant response rating, Pigweed, Palmer” value [13, 34] was 70 and the “Soybean plant response rating” value ([14]; 500 g ai/ha) was 100. For the same molecule, the “Soybean plant response rating” value ([14]; Test C, 125 g ai/ha) was 90, the “Plant response rating, Ryegrass, Italian” value [15, 34] was 90 and the “Plant response rating, Galium” value [16, 34] was 100. For the same molecule, the “Plant response rating, Galium” value [16, 35] was 100, the “Plant response rating, Rice (Flood)” value [17] was 20 and the “Plant response rating, Soybean” value [18, 34] was 100. For the same molecule, the “Plant response rating, Oat, Wild” value [19, 34] was 80, the “Plant response rating, Blackgrass” value [20, 34] was 80 and the “Plant response rating, Blackgrass” value [20, 35] was 100. For the same molecule, the “Kochia plant response rating” value ([21]; 500 g ai/ha) was 100, the “Kochia plant response rating” value ([21]; Test C, 125 g ai/ha) was 90 and the “Plant response rating, Barnyardgrass (Flood)” value [22] was 25. The “Plant response rating, Kochia” value [23, 34] was 60, the “Wheat plant response rating” value ([24]; 500 g ai/ha) was 90 and the “Wheat plant response rating” value ([24]; Test C, 125 g ai/ha) was 70. The “Plant response rating, Blackgrass” value [25, 36] was 80, the “Blackgrass plant response rating” value [25, 37] was 70 and the “Plant response rating, Barnyardgrass” value [26, 36] was 100. The “Barnyardgrass plant response rating” value [26, 37] was 100, the “Plant response rating, Sedge, Umbrella (Flood)” value [27] was 95 and the “Plant response rating, Ragweed” value [28, 34] was 70.

From patent US20260262643A1, “HERBICIDAL BENZOXAZINES” (FMC CORPORATION, priority 2022, published 2026)
